Source: patent US20210156844A1, “TMEM16A Modulation for Diagnostic or Therapeutic Use in Pulmonary Hypertension (PH)” (Bayer Aktiengesellschaft, priority 2017, published 2021)

Tested on: hypoxia-exposed mice
Test: Chronic hypoxia-induced mouse model of PH, slow-release pellets
Format: in vivo
Text: The experimental protocol is depicted in FIG. 12A. Male C57BL/6J mice (Charles River) at the age of 10 weeks were either placed into a hypoxic chamber (FiO2=0.1, n=16) for 4 weeks, or kept at normoxic conditions (control group, FiO2=0.21, n=8). According to the reports of Fagan et al. (Fagan, K A, et al. Am. J. Physiol. Lung Cell. Mol. Physiol. (2004) 287, L656-664) and Tuscherer et al. (Tuchscherer, H A, et al., J. Biomech. (2007) 40, 993-1001), a significant increase in the right ventricular systolic pressure (RVSP) and PA muscularization can be observed already after 14 days of hypoxia exposure. Therefore, mice subjected to hypoxia were randomized into two groups at the end of the second week. Eight mice received a subcutaneous slow-release pellet containing benzbromarone (Innovative Research of America, Sarasota Fla., USA) (HOX+BBR) and the other 8 mice received pellets with vehicle (HOX+Veh). The pellets ensured a stable blood concentration of the drug/vehicle over the next two weeks. At the end of week 4, all mice were subjected to in vivo hemodynamic measurements, followed by sacrifice and organ collection.
In mice, in vivo hemodynamics was performed under constant inhalation of 2% isoflurane/oxygen, using the closed chest technique through a small incision on the submandibular area. Body temperature was monitored and maintained at 37±1° C. A limb-lead ECG was recorded and the heart rate was kept constant to avoid changes in the sympathetic tone during the experiment. The right ventricle (RV) was catheterized via the right jugular vein using a 1.4 F Millar catheter (SPR-671, Millar, Houston Tex., USA) and right ventricular systolic pressure (RVSP) was measured continuously. Another catheter was inserted into the left carotid artery to monitor systemic blood pressure. After recording of stable values, the experiment was either continued with the assessment of the acute hemodynamic effects of benzbromarone (described above), or mice were sacrificed immediately for organ collection. […]
At the end of the hemodynamic measurements, animals were exsanguinated and the heart and lungs were isolated. […] Right ventricular hypertrophy was assessed by calculating the Fulton index, defined as RV weight/(LV+S weight).
Paraffin-embedded mouse and rat lung tissues were cut to 2 μm thin sections. Double immunohistochemical staining and quantification of the non-muscularized and muscularized arteries were made as previously described (Crnkovic, S, et al., Respir. Physiol. Neurobiol. (2011) 179, 342-345). […] Vessel remodeling in lung sections was quantified using semi-automated image analysis software (Visiopharm, Hoersholm, Denmark). […] The percentage of non-muscularized and muscularized pulmonary arteries, relative to the total number of pulmonary arteries, was calculated. […]

[1] = subcutaneous slow-release pellet weeks 2-4 of 4 weeks hypoxia, vs HOX+Veh

CCc1oc2ccccc2c1C(=O)c1cc(Br)c(O)c(Br)c1 [benzbromarone, (2-Ethyl-3-benzofuranyl)-(3,5-dibrom-4-hydroxyphenyl)ketone]
PCNA positive nuclei in the medial layer of the PA (hypoxic mice, lung sections (not shown)): reduced number | hypoxia-induced muscularization of pulmonary arteries (ratio of fully vs non-muscularised arteries compared to HOX+Veh): reversed | Fulton index [1]: lowered | RVSP [1]: lowered
